The values below come from ChEMBL document CHEMBL5131391, “One-pot three-component synthesis of novel pyrazolo[3,4-b]pyridines as potent antileukemic agents” (Eur J Med Chem, 2022).

For orientation: GI50 means the concentration that inhibits growth by half. Usually TGI stands for the concentration giving total growth inhibition.

Holding throughout (type): functional
For experiment [1], the system named is SNB-19. Put plainly: Antiproliferative activity against human SNB-19 cells assessed as growth inhibition measured after 48 hrs by NCI protocol based SRB assay. (Sulforhodamine B stains cellular protein and so reports cell mass.)
The subject of a further experiment is DU-145. Description: Cytostatic activity in human DU-145 cells assessed as tumor growth inhibition measured after 48 hrs by NCI protocol based SRB assay.
For the next experiment, the system named is HOP-62. Put plainly: Antiproliferative activity against human HOP-62 cells assessed as growth inhibition measured after 48 hrs by NCI protocol based SRB assay.
Another experiment relates to LOX IMVI. Put plainly: Antiproliferative activity against human LOX IMVI cells assessed as growth inhibition measured after 48 hrs by NCI protocol based SRB assay.
The next experiment relates to SK-MEL-28. Put plainly: Cytostatic activity in human SK-MEL-28 cells assessed as tumor growth inhibition measured after 48 hrs by NCI protocol based SRB assay.
A further experiment deals with NCI-H460. Description: Cytostatic activity in human NCI-H460 cells assessed as tumor growth inhibition measured after 48 hrs by NCI protocol based SRB assay.
In another experiment the test system is CCRF-CEM. Put plainly: Cytostatic activity in human CCRF-CEM cells assessed as tumor growth inhibition measured after 48 hrs by NCI protocol based SRB assay.
Another experiment relates to IGROV-1. Description: Antiproliferative activity against human IGROV-1 cells assessed as growth inhibition measured after 48 hrs by NCI protocol based SRB assay.
The subject of a further experiment is RXF 393. Put plainly: Cytostatic activity in human RXF 393 cells assessed as tumor growth inhibition measured after 48 hrs by NCI protocol based SRB assay.
For experiment [2], the system named is A549. Put plainly: Cytostatic activity in human A549 cells assessed as tumor growth inhibition measured after 48 hrs by NCI protocol based SRB assay.
In a further experiment the test system is CAKI-1. Description: Antiproliferative activity against human CAKI-1 cells assessed as growth inhibition measured after 48 hrs by NCI protocol based SRB assay.
The subject of experiment [3] is A549. Put plainly: Antiproliferative activity against human A549 cells assessed as growth inhibition measured after 48 hrs by NCI protocol based SRB assay.
For a further experiment, the system named is EKVX. Description: Antiproliferative activity against human EKVX cells assessed as growth inhibition measured after 48 hrs by NCI protocol based SRB assay.
The subject of experiment [4] is SR. Put plainly: Cytostatic activity in human SR cells assessed as tumor growth inhibition measured after 48 hrs by NCI protocol based SRB assay.
The next experiment relates to A498. Description: Cytostatic activity in human A498 cells assessed as tumor growth inhibition measured after 48 hrs by NCI protocol based SRB assay.
The test system of the next experiment is OVCAR-8. Put plainly: Antiproliferative activity against human OVCAR-8 cells assessed as growth inhibition measured after 48 hrs by NCI protocol based SRB assay.
For a further experiment, the system named is HCC 2998. Put plainly: Antiproliferative activity against human HCC 2998 cells assessed as growth inhibition measured after 48 hrs by NCI protocol based SRB assay.
The test system of experiment [5] is SK-OV-3. Description: Cytostatic activity in human SK-OV-3 cells assessed as tumor growth inhibition measured after 48 hrs by NCI protocol based SRB assay.
A further experiment relates to OVCAR-4. Put plainly: Cytostatic activity in human OVCAR-4 cells assessed as tumor growth inhibition measured after 48 hrs by NCI protocol based SRB assay.
For a further experiment, the system named is MDA-MB-231. Description: Cytostatic activity in human MDA-MB-231 cells assessed as tumor growth inhibition measured after 48 hrs by NCI protocol based SRB assay.
For another experiment, the system named is COLO 205. Description: Cytostatic activity in human COLO 205 cells assessed as tumor growth inhibition measured after 48 hrs by NCI protocol based SRB assay.
The subject of another experiment is SW-620. Description: Cytostatic activity in human SW-620 cells assessed as tumor growth inhibition measured after 48 hrs by NCI protocol based SRB assay.
Experiment [6] deals with SNB-19. Put plainly: Cytostatic activity in human SNB-19 cells assessed as tumor growth inhibition measured after 48 hrs by NCI protocol based SRB assay.
The test system of the next experiment is Hs-578T. Description: Cytostatic activity in human Hs-578T cells assessed as tumor growth inhibition measured after 48 hrs by NCI protocol based SRB assay.
Experiment [7] relates to SK-OV-3. Put plainly: Antiproliferative activity against human SK-OV-3 cells assessed as growth inhibition measured after 48 hrs by NCI protocol based SRB assay.
The test system of another experiment is MOLT-4. Description: Antiproliferative activity against human MOLT-4 cells assessed as growth inhibition measured after 48 hrs by NCI protocol based SRB assay.
Experiment [8] relates to HOP-92. Description: Antiproliferative activity against human HOP-92 cells assessed as growth inhibition measured after 48 hrs by NCI protocol based SRB assay.
A further experiment has as its system KM12. Put plainly: Antiproliferative activity against human KM12 cells assessed as growth inhibition measured after 48 hrs by NCI protocol based SRB assay.
The subject of the next experiment is T47D. Description: Cytostatic activity in human T47D cells assessed as tumor growth inhibition measured after 48 hrs by NCI protocol based SRB assay.
Experiment [9] has as its system SNB-75. Put plainly: Cytostatic activity in human SNB-75 cells assessed as tumor growth inhibition measured after 48 hrs by NCI protocol based SRB assay.
The next experiment has as its system MDA-MB-435. Description: Cytostatic activity in human MDA-MB-435 cells assessed as tumor growth inhibition measured after 48 hrs by NCI protocol based SRB assay.
A further experiment has as its system NCI-H522. Description: Cytostatic activity in human NCI-H522 cells assessed as tumor growth inhibition measured after 48 hrs by NCI protocol based SRB assay.
A further experiment concerns HT-29. Put plainly: Cytostatic activity in human HT-29 cells assessed as tumor growth inhibition measured after 48 hrs by NCI protocol based SRB assay.
Experiment [10] deals with SNB-75. Description: Antiproliferative activity against human SNB-75 cells assessed as growth inhibition measured after 48 hrs by NCI protocol based SRB assay.
Experiment [11] has as its system HOP-92. Put plainly: Cytostatic activity in human HOP-92 cells assessed as tumor growth inhibition measured after 48 hrs by NCI protocol based SRB assay.
A further experiment relates to U-251. Description: Antiproliferative activity against human U-251 cells assessed as growth inhibition measured after 48 hrs by NCI protocol based SRB assay.
A further experiment deals with NCI-H23. Put plainly: Antiproliferative activity against human NCI-H23 cells assessed as growth inhibition measured after 48 hrs by NCI protocol based SRB assay.
Experiment [12] concerns SR. Put plainly: Antiproliferative activity against human SR cells assessed as growth inhibition at 10 uM measured after 48 hrs by NCI protocol based SRB assay relative to control. To be noted: read-out: GI.
In another experiment the test system is RS4-11. Description: Induction of cell cycle arrest in human RS4-11 cells assessed as accumulation of cells in subG1 phase at 1.25 to 10 uM measured after 72 hrs by PI staining based flow cytometry analysis. The following applies: dose 1.25-10 µM. In general terms: A flow cytometer gives signals particle by particle.
The mark [13] stands for this setting: read-out: LC50 (the source's name).

Calls of active or inactive are those of the source. No cut-off for these calls is given here.

Consider `N#Cc1c(-c2ccccc2)nc2c(c(-c3ccccc3)nn2-c2ccccc2)c1-c1ccc(O)cc1`, for which the GI50 in the experiment on SNB-19 [1] came to 1.9 µM; with HOP-62, 2.12 µM; with LOX IMVI, 1.68 µM; with IGROV-1 it was 1.8 µM; in the experiment with CAKI-1, 2.48 µM; in the experiment on A549 [3], 2.57 µM. Moreover, the GI50 in the experiment on EKVX came to 1.92 µM; in the experiment on OVCAR-8 it was 3.14 µM; in the experiment on HCC 2998, 1.84 µM; in the experiment on SK-OV-3 [7] it was 2.87 µM; in the experiment with MOLT-4 it was 2.49 µM; with HOP-92 [8], 2.06 µM. Further, the GI50 in the experiment with KM12 was found to be 2.02 µM; in the experiment on SNB-75 [10] it was 2.03 µM; with U-251 it was 1.63 µM; in the experiment with NCI-H23, 1.78 µM. Further, the CC50 is 7.57 µM in the experiment with SNB-19 [1] (setting [13]); 9.53 µM in the experiment with HOP-62 (setting [13]); 5.55 µM with LOX IMVI (setting [13]); 7.28 µM in the experiment on IGROV-1 (setting [13]); 23.8 µM in the experiment with CAKI-1 (setting [13]); 84.2 µM with A549 [3] (setting [13]). Moreover, the CC50 is 21.9 µM in the experiment on EKVX (setting [13]); more than 100 µM with OVCAR-8 (setting [13]); 6.53 µM with HCC 2998 (setting [13]); 2.98 µM with SK-OV-3 [7] (setting [13]); more than 100 µM with MOLT-4 (setting [13]); 8.6 µM with HOP-92 [8] (setting [13]). For the same compound, the CC50 in the experiment on KM12 (setting [13]) turned out to be 14.9 µM; in the experiment on SNB-75 [10] (setting [13]), 28.3 µM; in the experiment with U-251 (setting [13]), 9.71 µM; with NCI-H23 (setting [13]) it was 8.26 µM. The TGI came out at 8.53 µM in the experiment on DU-145; 3.05 µM with SK-MEL-28; 3.26 µM in the experiment with NCI-H460; 13.4 µM in the experiment with CCRF-CEM; 2.35 µM with RXF 393; 6.87 µM in the experiment with A549 [2]. For the same compound, the TGI in the experiment with SR [4] is more than 100 µM; in the experiment with A498 it was 3.07 µM; with SK-OV-3 [5], 8.48 µM; with OVCAR-4, 4.66 µM; in the experiment with MDA-MB-231 it was 3.31 µM; in the experiment on COLO 205 it was 6.31 µM. For the same compound, the TGI in the experiment with SW-620 stood at 3.53 µM; in the experiment on SNB-19 [6] it was 3.8 µM; in the experiment on Hs-578T, 4.46 µM; in the experiment on T47D it was 23.8 µM; with SNB-75 [9] it was 7.28 µM; in the experiment with MDA-MB-435, 3.71 µM. Moreover, the figures for the TGI in the experiment with NCI-H522, with HT-29 and in the experiment with HOP-92 [11] were 6.03 µM, 6.44 µM and 4.2 µM, respectively.
Regarding `N#Cc1c(-c2ccco2)nc2c(c(-c3ccccc3)nn2-c2ccccc2)c1-c1ccc(O)cc1`, the inhibition of growth at 10 µM with SR [12] is 81%.
As to `Cc1ccc(-c2nc3c(c(-c4ccccc4)nn3-c3ccccc3)c(-c3ccc(O)cc3)c2C#N)cc1`, the result with RS4-11 was Active.
